Measured values reported in ChEMBL document CHEMBL5291721, “A preclinical secondary pharmacology resource illuminates target-adverse drug reaction associations of marketed drugs” (Nat Commun, 2023).

Tests used:
[1] = target: Sodium-dependent dopamine transporter (Homo sapiens, UniProt Q01959)
[2] = target: T1, Muscarinic acetylcholine receptor M1 (Homo sapiens, UniProt P11229); format: functional
T1 sequence (P11229 whole entry): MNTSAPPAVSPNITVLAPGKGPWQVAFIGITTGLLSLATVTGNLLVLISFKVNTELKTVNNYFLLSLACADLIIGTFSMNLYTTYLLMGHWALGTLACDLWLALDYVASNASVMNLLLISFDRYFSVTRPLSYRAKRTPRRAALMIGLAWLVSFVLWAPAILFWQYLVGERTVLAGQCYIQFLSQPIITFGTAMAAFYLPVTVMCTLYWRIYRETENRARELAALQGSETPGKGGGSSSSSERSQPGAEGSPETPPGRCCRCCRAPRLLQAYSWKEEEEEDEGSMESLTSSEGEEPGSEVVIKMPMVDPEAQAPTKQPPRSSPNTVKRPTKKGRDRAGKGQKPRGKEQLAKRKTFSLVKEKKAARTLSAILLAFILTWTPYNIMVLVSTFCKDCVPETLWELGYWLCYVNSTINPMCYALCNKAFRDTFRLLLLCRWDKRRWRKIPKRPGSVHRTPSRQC

[3] = target: Sodium-dependent noradrenaline transporter (Homo sapiens, UniProt P23975)
Melanocortin receptor 3 = Melanocortin receptor 3 (Homo sapiens, UniProt P41968)
Histamine H1 receptor = Histamine H1 receptor (Homo sapiens, UniProt P35367)
[4] = target: Beta-1 adrenergic receptor (Homo sapiens, UniProt P08588); format: functional
B2 bradykinin receptor = target: T2, B2 bradykinin receptor (Homo sapiens, UniProt P30411)
T2 sequence (P30411 whole entry): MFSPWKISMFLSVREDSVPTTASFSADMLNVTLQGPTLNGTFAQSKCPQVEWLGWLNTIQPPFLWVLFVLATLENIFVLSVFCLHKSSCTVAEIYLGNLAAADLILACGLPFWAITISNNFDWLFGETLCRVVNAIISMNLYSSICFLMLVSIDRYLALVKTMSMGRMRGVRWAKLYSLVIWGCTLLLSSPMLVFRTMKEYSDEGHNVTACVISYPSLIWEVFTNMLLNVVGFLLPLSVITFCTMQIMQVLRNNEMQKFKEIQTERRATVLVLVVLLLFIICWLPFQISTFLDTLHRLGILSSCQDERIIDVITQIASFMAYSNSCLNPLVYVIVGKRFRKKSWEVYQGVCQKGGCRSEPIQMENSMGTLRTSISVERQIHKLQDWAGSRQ

D(3) dopamine receptor = D(3) dopamine receptor (Homo sapiens, UniProt P35462)
Motilin receptor = Motilin receptor (Homo sapiens, UniProt O43193)
[5] = target: T3, Neuropeptide Y receptor type 1 (Homo sapiens, UniProt P25929); settings: read-out: AC50
T3 sequence (P25929 whole entry): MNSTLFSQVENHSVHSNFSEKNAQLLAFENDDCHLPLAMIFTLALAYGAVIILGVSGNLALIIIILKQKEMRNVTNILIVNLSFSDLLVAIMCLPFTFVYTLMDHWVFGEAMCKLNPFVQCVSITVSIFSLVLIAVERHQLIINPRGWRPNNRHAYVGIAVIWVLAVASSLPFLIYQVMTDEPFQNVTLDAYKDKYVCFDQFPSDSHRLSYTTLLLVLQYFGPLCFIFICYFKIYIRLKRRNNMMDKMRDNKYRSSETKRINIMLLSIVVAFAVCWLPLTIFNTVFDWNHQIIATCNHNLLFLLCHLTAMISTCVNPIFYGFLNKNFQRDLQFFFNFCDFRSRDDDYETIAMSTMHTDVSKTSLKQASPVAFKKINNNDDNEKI

[6] = target: T4, Type-1 angiotensin II receptor (Homo sapiens, UniProt P30556)
T4 sequence (P30556 whole entry): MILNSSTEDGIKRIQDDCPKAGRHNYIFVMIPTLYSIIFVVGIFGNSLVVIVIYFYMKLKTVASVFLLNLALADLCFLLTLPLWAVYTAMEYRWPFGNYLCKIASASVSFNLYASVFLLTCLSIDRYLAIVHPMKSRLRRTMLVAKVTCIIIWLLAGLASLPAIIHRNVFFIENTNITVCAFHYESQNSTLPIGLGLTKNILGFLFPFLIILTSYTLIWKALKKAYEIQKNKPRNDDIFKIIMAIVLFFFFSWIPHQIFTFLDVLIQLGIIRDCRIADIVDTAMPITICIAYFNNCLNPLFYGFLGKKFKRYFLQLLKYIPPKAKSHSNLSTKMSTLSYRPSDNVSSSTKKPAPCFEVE

[7] = target: Muscarinic acetylcholine receptor M3 (Homo sapiens, UniProt P20309)
[8] = target: Gamma-aminobutyric acid receptor subunit alpha-1 (Rattus norvegicus, UniProt P62813); format: functional
Estrogen receptor = target: T5, Estrogen receptor (Homo sapiens, UniProt P03372)
T5 sequence (P03372 whole entry): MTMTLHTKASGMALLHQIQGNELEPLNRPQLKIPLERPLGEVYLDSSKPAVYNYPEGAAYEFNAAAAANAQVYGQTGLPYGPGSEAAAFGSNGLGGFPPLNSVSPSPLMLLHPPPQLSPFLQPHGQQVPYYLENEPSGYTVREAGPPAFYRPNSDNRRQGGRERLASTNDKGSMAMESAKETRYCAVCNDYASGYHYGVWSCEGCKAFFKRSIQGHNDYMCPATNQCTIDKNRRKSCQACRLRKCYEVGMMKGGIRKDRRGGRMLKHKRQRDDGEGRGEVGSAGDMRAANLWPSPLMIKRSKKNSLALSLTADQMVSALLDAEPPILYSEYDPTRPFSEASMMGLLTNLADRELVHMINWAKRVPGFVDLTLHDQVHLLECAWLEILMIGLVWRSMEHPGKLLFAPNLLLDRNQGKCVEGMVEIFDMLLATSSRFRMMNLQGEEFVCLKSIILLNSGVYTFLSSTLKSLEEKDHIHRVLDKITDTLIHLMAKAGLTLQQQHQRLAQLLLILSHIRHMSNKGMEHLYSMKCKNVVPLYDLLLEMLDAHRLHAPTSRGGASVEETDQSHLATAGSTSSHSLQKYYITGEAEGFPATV
Also: assay procedure not described here.

Chain of Beta-1 adrenergic receptor (P08588 whole entry): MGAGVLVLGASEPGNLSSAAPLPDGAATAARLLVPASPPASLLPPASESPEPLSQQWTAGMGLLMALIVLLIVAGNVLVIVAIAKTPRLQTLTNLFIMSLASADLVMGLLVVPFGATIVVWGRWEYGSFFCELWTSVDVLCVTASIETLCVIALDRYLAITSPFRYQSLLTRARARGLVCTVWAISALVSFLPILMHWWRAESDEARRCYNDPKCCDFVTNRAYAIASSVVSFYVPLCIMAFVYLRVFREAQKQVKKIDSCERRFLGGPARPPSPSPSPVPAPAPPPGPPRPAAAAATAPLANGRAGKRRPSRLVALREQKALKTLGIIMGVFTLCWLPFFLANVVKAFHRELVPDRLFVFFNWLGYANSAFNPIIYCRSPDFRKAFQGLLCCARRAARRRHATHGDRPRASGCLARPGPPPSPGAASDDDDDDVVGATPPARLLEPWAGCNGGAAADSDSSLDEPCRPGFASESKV
Chain of Sodium-dependent noradrenaline transporter (P23975 whole entry): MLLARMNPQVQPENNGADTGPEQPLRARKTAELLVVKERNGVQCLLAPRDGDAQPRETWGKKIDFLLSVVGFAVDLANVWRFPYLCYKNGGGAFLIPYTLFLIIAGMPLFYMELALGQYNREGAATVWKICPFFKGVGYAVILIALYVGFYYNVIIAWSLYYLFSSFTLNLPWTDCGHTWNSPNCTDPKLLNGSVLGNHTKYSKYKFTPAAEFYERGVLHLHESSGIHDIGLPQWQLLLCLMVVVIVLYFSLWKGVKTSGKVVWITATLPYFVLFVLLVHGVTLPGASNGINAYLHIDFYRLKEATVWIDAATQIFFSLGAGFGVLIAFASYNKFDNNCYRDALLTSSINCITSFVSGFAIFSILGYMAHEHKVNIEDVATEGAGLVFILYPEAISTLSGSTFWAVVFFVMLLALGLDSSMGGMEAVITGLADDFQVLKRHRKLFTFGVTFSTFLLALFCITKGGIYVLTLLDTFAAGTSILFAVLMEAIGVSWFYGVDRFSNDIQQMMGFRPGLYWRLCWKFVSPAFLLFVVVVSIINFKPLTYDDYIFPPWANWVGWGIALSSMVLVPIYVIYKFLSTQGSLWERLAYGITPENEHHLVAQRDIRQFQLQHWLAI
Chain of Melanocortin receptor 3 (P41968 whole entry): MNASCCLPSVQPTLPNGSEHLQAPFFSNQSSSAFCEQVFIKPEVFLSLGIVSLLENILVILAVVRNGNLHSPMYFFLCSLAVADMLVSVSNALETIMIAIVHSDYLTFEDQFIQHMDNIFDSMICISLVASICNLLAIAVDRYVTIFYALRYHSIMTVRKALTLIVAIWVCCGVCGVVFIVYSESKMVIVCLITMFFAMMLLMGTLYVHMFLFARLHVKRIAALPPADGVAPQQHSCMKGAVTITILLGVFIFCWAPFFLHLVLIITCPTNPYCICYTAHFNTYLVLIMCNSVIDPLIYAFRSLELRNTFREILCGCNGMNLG
Chain of Muscarinic acetylcholine receptor M3 (P20309 whole entry): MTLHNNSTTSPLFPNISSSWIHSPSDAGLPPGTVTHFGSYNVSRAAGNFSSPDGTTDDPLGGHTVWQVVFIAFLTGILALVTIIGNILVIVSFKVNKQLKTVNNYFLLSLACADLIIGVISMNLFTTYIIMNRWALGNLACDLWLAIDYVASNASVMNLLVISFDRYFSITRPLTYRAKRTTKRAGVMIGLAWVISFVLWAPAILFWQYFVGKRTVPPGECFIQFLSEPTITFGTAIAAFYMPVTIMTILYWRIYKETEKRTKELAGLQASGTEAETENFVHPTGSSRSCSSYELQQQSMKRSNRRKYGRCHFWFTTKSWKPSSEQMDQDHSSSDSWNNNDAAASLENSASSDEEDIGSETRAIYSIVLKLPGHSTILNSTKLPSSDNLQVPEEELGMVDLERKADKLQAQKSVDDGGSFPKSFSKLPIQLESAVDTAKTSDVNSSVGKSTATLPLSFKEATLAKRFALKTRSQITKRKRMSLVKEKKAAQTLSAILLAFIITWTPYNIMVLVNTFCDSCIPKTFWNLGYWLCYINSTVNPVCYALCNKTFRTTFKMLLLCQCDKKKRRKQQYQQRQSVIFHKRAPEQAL
Chain of D(3) dopamine receptor (P35462 whole entry): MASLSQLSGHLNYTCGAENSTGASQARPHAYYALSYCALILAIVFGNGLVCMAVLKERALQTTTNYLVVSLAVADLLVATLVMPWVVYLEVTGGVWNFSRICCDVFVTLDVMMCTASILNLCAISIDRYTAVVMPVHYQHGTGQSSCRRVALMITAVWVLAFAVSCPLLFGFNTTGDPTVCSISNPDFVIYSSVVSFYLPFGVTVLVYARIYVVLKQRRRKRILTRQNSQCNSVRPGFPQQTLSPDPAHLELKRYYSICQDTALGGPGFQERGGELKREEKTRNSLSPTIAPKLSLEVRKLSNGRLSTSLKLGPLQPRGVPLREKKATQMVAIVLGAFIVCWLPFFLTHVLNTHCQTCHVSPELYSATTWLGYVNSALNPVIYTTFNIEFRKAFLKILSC
Chain of Histamine H1 receptor (P35367 whole entry): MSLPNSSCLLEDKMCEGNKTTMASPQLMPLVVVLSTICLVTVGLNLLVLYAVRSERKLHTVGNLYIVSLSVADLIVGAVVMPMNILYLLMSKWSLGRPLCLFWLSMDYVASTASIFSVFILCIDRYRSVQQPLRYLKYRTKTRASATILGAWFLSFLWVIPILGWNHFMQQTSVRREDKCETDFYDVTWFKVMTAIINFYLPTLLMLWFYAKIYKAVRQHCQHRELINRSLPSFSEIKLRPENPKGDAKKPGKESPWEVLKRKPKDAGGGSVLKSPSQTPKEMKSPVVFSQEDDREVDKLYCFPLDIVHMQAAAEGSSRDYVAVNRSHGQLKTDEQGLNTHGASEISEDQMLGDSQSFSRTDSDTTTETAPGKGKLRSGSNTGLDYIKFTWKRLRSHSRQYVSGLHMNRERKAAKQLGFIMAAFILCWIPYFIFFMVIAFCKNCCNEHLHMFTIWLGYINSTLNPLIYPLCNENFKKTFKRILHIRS
Chain of Sodium-dependent dopamine transporter (Q01959 whole entry): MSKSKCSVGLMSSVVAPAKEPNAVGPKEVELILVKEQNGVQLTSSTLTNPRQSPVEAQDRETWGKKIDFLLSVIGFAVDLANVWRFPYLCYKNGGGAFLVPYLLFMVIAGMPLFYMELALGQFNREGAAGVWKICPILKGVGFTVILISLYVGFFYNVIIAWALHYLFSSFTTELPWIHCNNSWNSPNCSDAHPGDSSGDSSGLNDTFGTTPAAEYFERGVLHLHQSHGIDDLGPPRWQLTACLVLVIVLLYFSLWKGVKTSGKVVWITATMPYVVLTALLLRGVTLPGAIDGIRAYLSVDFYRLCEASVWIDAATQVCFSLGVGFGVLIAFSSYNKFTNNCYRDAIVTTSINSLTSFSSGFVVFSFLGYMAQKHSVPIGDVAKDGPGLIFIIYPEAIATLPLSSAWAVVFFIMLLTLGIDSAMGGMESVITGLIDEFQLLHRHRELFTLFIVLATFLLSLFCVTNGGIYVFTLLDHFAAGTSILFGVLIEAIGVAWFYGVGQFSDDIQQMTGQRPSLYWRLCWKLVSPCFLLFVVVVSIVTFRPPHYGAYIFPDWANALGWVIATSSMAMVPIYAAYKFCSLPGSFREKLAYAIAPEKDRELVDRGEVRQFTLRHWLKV
Chain of Motilin receptor (O43193 whole entry): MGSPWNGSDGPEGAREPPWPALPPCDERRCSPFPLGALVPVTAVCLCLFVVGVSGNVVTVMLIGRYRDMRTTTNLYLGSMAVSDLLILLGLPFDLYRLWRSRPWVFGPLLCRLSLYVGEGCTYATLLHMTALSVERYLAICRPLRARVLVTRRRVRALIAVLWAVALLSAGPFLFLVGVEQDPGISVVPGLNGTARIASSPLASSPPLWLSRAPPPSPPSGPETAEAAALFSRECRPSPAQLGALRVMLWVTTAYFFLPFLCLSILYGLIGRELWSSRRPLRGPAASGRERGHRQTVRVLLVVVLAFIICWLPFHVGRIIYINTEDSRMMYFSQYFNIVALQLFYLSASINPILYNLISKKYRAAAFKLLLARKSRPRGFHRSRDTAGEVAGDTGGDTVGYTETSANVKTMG
Chain of Gamma-aminobutyric acid receptor subunit alpha-1 (P62813 whole entry): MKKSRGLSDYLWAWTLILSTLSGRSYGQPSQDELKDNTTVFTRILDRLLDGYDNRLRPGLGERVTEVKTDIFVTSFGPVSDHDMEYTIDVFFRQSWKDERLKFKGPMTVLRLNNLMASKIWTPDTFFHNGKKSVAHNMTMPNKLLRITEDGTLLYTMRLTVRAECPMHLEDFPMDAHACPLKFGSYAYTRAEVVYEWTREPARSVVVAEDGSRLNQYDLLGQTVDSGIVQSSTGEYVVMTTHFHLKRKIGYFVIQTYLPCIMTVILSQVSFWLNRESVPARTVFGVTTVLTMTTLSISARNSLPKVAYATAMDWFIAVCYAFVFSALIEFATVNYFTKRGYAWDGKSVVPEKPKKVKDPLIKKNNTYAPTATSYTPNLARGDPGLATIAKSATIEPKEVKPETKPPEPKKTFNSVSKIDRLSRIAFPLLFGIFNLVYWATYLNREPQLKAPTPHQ

Structure (SMILES) | AC50 [1] [µM] | AC50 [2] [µM] | AC50 [3] [µM] | AC50 (Melanocortin receptor 3) [µM] | AC50 (Histamine H1 receptor) [µM] | AC50 [4] [µM] | AC50 (B2 bradykinin receptor) [µM] | AC50 (D(3) dopamine receptor) [µM] | AC50 (Motilin receptor) [µM] | AC50 [5] [µM] | AC50 [6] [µM] | AC50 [7] [µM] | AC50 [8] [µM] | AC50 (Estrogen receptor) [µM]
CCC(COC(=O)c1cc(OC)c(OC)c(OC)c1)(c1ccccc1)N(C)C (stereo not given) [TRIMEBUTINE] | 27 | > 30 | > 30 | > 30 | > 30 | > 30 | > 30 | > 30 | > 30 | > 30 | > 30 | > 30 | > 30 | 
COc1ccc(-c2noc(CC(=O)O)c2-c2ccc(OC)cc2)cc1 [MOFEZOLAC] | > 30 | > 30 | > 30 | > 30 | > 30 | > 30 | > 30 | > 30 | > 30 | > 30 | > 30 | > 30 | > 30 | 
Cn1c(=O)cc(N2CCC[C@@H](N)C2)n(Cc2ccccc2C#N)c1=O [ALOGLIPTIN] | > 10 | > 10 | > 10 | > 30 | > 10 | > 10 | > 30 | > 10 | > 10 | > 30 | > 30 |  | > 10 | > 30
CC(=O)OCC(=O)[C@@]1(O)[C@H](C)C[C@H]2[C@@H]3CCC4=CC(=O)C=C[C@]4(C)[C@@]3(F)[C@@H](O)C[C@@]21C [DEXAMETHASONE ACETATE] | > 30 | > 10 | > 30 | > 30 | > 10 | > 10 | > 30 | > 30 | > 10 | > 30 | > 30 | > 30 | > 10 | 

Continued, values first:

AC50 [1] [µM] | AC50 [2] [µM] | AC50 [3] [µM] | AC50 (Melanocortin receptor 3) [µM] | AC50 (Histamine H1 receptor) [µM] | AC50 [4] [µM] | AC50 (B2 bradykinin receptor) [µM] | AC50 (D(3) dopamine receptor) [µM] | AC50 (Motilin receptor) [µM] | AC50 [5] [µM] | AC50 [6] [µM] | AC50 [7] [µM] | AC50 [8] [µM] | AC50 (Estrogen receptor) [µM] | Structure (SMILES)
> 30 | > 10 | > 30 | > 30 | > 10 |  |  |  |  |  |  |  |  |  | Cn1cnc2c(F)c(Nc3ccc(Br)cc3Cl)c(C(=O)NOCCO)cc21 [SELUMETINIB]
> 30 | > 30 | > 30 | > 30 | > 30 | > 30 |  |  |  |  |  |  |  |  | CN(C(=O)c1c(O)c2ccccc2n(C)c1=O)c1ccccc1 [ROQUINIMEX]
> 30 |  | > 30 | > 30 |  | > 30 | > 30 | 0.36 | > 30 | > 30 | > 30 |  | > 30 | > 30 | CCN(CC)CCNC(=O)c1cc(S(C)(=O)=O)ccc1OC [TIAPRIDE]
> 30 |  | > 30 | > 30 |  | > 30 | > 30 | > 30 | > 30 | > 30 | > 30 |  | > 30 | > 30 | NC1CCN(c2nc3c(cc2F)c(=O)c(C(=O)O)cn3-c2ccc(F)cc2F)C1 (stereo not given) [TOSUFLOXACIN]
